Experimental data from patent US20050002904A1, “Uses of vascular endothelial growth factor and type I collagen inducible protein (VCIP)” (priority 2003, published 2005).
Where no end group is shown, it is not given here.

Legend:
WT and MT HEK293 cells = test: Cell aggregation assay, mixed dye-labelled WT and MT cells; assay type: cell-based; details: WT mixed with MT cells; 12 h
Method: FIGS. 9A-F show VCIP mediates heterophilic cell-cell interactions. Magnification, 200×. Bar, […]. *, P<0.05. The images of cell aggregates appear out of focus. FIG. 9A: Representative photomicrograph of a mixture of WT and MT cells labeled with red (Dil) and green (DiO) fluorescent dyes at 0 h. FIG. 9B: Small and large cell-aggregates were visible after 6 h; green arrowheads indicate the most productive cell aggregation (yellow). FIG. 9C: Representative large cell aggregates are shown after 12 h. FIG. 9D: Cells co-incubated with the GRGDSP peptide for 12 h. FIG. 9E: Cells co-incubated with anti-VCIP-RGD antibody (25 μg/ml) after 12 h. All experiments were performed at least three times in triplicates.
To monitor aggregation, cells were labeled with optimal non-toxic concentrations of fluorescent dyes. This assay was performed essentially according to the protocol described by Niessen and Gumbiner (2002), with minor modifications. […] The inhibitory effects of EDTA, peptides and antibodies on cell aggregation were determined at the end of 12 h. […] Experiments were performed at least three times with each time point analyzed in triplicate. Only productive cell aggregates (yellow) were counted. […] Numbers were expressed as the percentage of total aggregates counted. […]

[1] = system: SW480 cells on monolayer HUVECs; test: Adhesion of SW480 cells to HUVEC monolayer; assay type: cell-based, human; details: pre-incubation; GRGDSP 10, 20 μM; antibody 20, 40 μg/ml; 1 hr
Method: FIGS. 7A-O show the effects of VCIP on adhesion of cadherin-deficient SW480 cells to HUVECs monolayer. SW480-C, SW480-WT, and SW480-MT cells were non-enzymatically detached from dishes, washed, passed through a cell strainer, counted, and labeled with a fluorescent dye (red) prior to experiments. HUVECs were seeded onto 12-well dishes in complete media and allowed to form a 100% confluent monolayer on the day of assay. Monolayer HUVECs were washed once each with PBS and HCMF, and then preincubated in HCMF supplemented with Ca^2+/Mg^2+ for 10 min at 37° C. SW480 cells (0.25×10^6) were finely resuspendend in 500 μl of HCMF buffer supplemented with Ca^2+/Mg^2+, layered onto the monolayer, and allowed to attach at 37° C. for 1 hr. Unattached cells were removed by washing with PBS and adherent cells were fixed with 4% paraformaldehyde. The number of cells adhered to the monolayer were determined using a phase-contrast microscope. Experiments were performed at least three times in triplicates, with three independent clones. […] In each experiment, the relative percentage of cell adhesion was calculated and presented as mean±SD. […] Data are expressed as mean±S.D. (n≧7), *P<0.05. […]

p120catenin = test: Far-western assay with GST-PAP2b-cyto fusion protein; assay type: binding, human; details: 2 μg/ml fusion protein
Method: FIGS. 17A-H show interaction of PAP2b/VCIP with p120 catenin in endothelial cells. FIGS. 17A-B: Clarified cell lysates were prepared from endothelial cells infected with indicated PAP2b retroviral constructs A-E as shown in FIG. 14 and subjected to immunoprecipitation with: anti-HA (lanes 1, 2, 4, 5 and 6) or anti-p120 catenin (lane 3) and analyzed by immunoblotting with the indicated antibodies. FIGS. 17C-H: Far western analysis. Endothelial cells were solubilized in RIPA buffer, and immunoprecipitated using indicated antibodies (5 μg/1.5 mg protein). The membrane shown in FIG. 17C was incubated with 2 μg/ml of Gst-PAP2b-cyto fusion protein for 1 hour, washed with 1×TBS+tween (0.1%) and analyzed by immunoblotting with anti-Gst monoclonal antibodies (2 μg/ml). Individual lanes from the blot was excised and probed with: anti-VE-cadherin (FIG. 17D), anti-p120ctn (FIG. 17E), anti-β-catenin (FIG. 17F), anti-γ-catenin (FIG. 17G), and β1-integrin (FIG. 17H) monoclonal antibodies. […]
To further substantiate that the C-terminal cytoplasmic domain of PAP2b was indeed the region involved in the interaction, far-western assay (Wary et al., 1996) was performed using recombinant affinity purified GST-PAP2b-cyto fusion protein as follows. […] After rinsing with TBS, pH 7.5, the membrane was incubated with anti-Gst mouse monoclonal antibodies and detected as previously described (Schor et al., 1996). […]

Row | Substance | inhibition of cell aggregation (WT and MT HEK293 cells) | blocking of adhesion of pLNCX2-VCIP-RGD SW480 cells to monolayer HUVECs [1] | interaction with p120catenin (p120catenin) | reaction with VE cadherin, β- and γ-catenin, or β1-integrin polypeptides (p120catenin)
1 | GRADSP [control peptide] | did not |  |  | 
2 | GRGDSP (CHAIN a peptide containing RGD sequence) | dose-dependently inhibited cell aggregation | blocked |  | 
3 | GST-PAP2b-c-cyto: recombinant affinity purified GST fusion of the C-terminal cytoplasmic domain of PAP2b (LSLPAPAIRKEILSPVDIIDRNNHHNMM; also: GST fusion) |  |  | sufficient to interact with p120catenin | did not react
